Series [1] relates to human colon cancer cell line (HT-29). Briefly: MTT cell proliferation assay, cytotoxicity and GI50, HT-29. The conditions noted are these: read-out: Cytotoxic activity (GI50 Values) HT-29. In general terms: Tetrazolium dyes change colour on reduction, which living cells bring about.
Procedure: Cell Culture and Cytotoxicity:
(§1) Human prostate cancer cell line (PC-3) and human colon cancer cell line (HT-29) were obtained from the German Collection of Microorganisms. All cell lines were cultivated under conditions recommended by their respective depositors. […] For PC-3 cell lines 500 cells per well and for HT-29 cell lines 1500-2000 cells per well were seeded overnight into 96-well cell culture plates (TPP, Trasadingen, Switzerland) and exposed to serial dilutions of each inhibitor for 3 days. Formazan salt formation was measured at 490 nm using an enzyme-linked immunosorbent assay (ELISA) reader (DYNEX technologies MRX TC II). From each compound four independent replicates were prepared.
For series [2], the system named is Human prostate cancer cell line (PC-3). Briefly: MTT cell proliferation assay, cytotoxicity and GI50, PC-3. The conditions noted are these: read-out: Cytotoxic activity (GI50 Values) PC-3.
Procedure: Cell Culture and Cytotoxicity:
as §1

Like-named read-outs stand apart in the source and are kept apart here.

With `CC(=O)O[C@H]1C(=O)[C@@]2(C)[C@H]([C@H](OC(=O)c3ccccc3)[C@]3(O)C[C@H](OC(=O)[C@H](O)[C@@H](NC(=O)c4ccccc4)c4ccccc4)C(C)=C1C3(C)C)[C@]1(OC(C)=O)CO[C@@H]1C[C@@H]2O` [taxol, reference compound], the GI50 in series [1] (Homo sapiens, HT-29, 72 h) was 5.3 nM; in series [2] (Homo sapiens, PC-3, 72 h), 7.2 nM.

As for `CCCCNC(=O)CN(C(=O)[C@@H](NC(=O)[C@H]1CCCCN1C)[C@@H](C)CC)[C@H](C[C@@H](OC(C)=O)c1nc(C(=O)N[C@@H](Cc2ccccc2)C[C@H](C)C(=O)O)cs1)C(C)C` [tubugi A], the GI50 in series [1] (Homo sapiens, HT-29, 72 h) came out at 0.14 nM; in series [2] (Homo sapiens, PC-3, 72 h), 0.23 nM.

Regarding `CC[C@H](C)[C@H](NC(=O)[C@H]1CCCCN1C)C(=O)N(CC(=O)NC(C)C)[C@H](C[C@@H](OC(C)=O)c1nc(C(=O)N[C@@H](Cc2ccccc2)C[C@H](C)C(=O)O)cs1)C(C)C` [tubugi B], the GI50 in series [1] (Homo sapiens, HT-29, 72 h) was 0.34 nM; in series [2] (Homo sapiens, PC-3, 72 h) it was 0.29 nM.

As for `CCCCNC(=O)C(C)N(C(=O)[C@@H](NC(=O)[C@H]1CCCCN1C)[C@@H](C)CC)[C@H](C[C@@H](OC(C)=O)c1nc(C(=O)N[C@@H](Cc2ccccc2)C[C@H](C)C(=O)O)cs1)C(C)C` (stereo partly shown) [tubugi D], the GI50 in series [1] (Homo sapiens, HT-29, 72 h) came out at 0.56 nM; in series [2] (Homo sapiens, PC-3, 72 h), 0.22 nM.

Regarding `CC[C@H](C)[C@H](NC(=O)[C@H]1CCCCN1C)C(=O)N(COC(=O)CC(C)C)[C@H](C[C@@H](OC(C)=O)c1nc(C(=O)N[C@@H](Cc2ccc(O)cc2)C[C@H](C)C(=O)O)cs1)C(C)C` [tubulysin A, reference compound], the 50% growth inhibitory concentration (GI50) in series [1] (HT-29 cells, exposed 3 days, MTT, four independent replicates) worked out at 0.32 nM; in series [2] (PC-3 cells, exposed 3 days, MTT, four independent replicates) it was 0.21 nM.

In general, GI50 refers to the concentration at which growth is held to half of that of the control.
